Results as given in article PMC5413024, “Mechanistic insights into the more potent effect of KP-54 compared to KP-10 in vivo” (PLoS ONE, 2017).
In brackets after ≈: the same amount, converted by molar mass.

Legend:
[1] = Study 4: pharmacokinetics of plasma kisspeptin after i.p. injection (radioimmunoassay); format: in vivo, mouse; conditions: male mice, 1 nmol i.p.
Description: Male mice received a single i.p. injection of 1 nmol KP-10 or 1 nmol KP-54. 100 μl of blood was collected from the lateral tail vein from groups of mice (n = 4) for each time point (0, 1 min, 2 min, 5 min, 10 min, 30 min, 60 min and 120 min). Terminal bleeds were collected from the vena cava. Blood was mixed with 5 μl EDTA, centrifuged at 10,000 x g for 10 min at 4°C to obtain the plasma fraction, and stored at -20°C until assayed. Kisspeptin concentrations were measured using an established in house competitive radioimmunoassay (RIA, [5]. Briefly, this RIA uses a sheep polyclonal antibody (GQ2), raised against human KP-54, which cross-reacts with human KP-54, KP-14 and KP-10.
(§1) 3–5 month old wild-type (129S6/SvEv) male mice were used in this study. The mice were housed in open cages on a 12 hour light cycle (lights on at 0700 h) at a controlled temperature (22°C), and were provided with food and water ad libitum. All experiments were performed under the authority of a United Kingdom Home Office Project License and were approved by a Cambridge Animal Ethics Committee.

[2] = from the product data sheets; ref product data sheets (manufacturer); cited from earlier work
Description: KP-10 [human Metastin (45–54) amide, M-2816] was purchased from Sigma-Aldrich. KP-10 consists of the C-terminal 10-amino acids of KP-54. Human KP-54 was synthesized by the Advanced Biotechnology Centre, Imperial College, London, UK. BSA-FITC was purchased from Sigma (A9771). From the product data sheets, the solubility of KP-10 and KP-54 in water is 1mg/ml. We prepared stock solutions in sterile PBS at 100 μM, which is almost ten times lower than the solubility limit set by the manufacturer. The 100 μM stock solution was diluted in sterile PBS and 100 μl of the working solution was injected to ...

[3] = test system: plasma LH levels; experiment: Study 2: plasma LH after a high dose or multiple i.p. injections of KP-10; format: in vivo, mouse; conditions: male mice, single i.p. injection of 1 nmol, mean ± s.e.m., n = 10
Description: Male mice received a single intraperitoneal (i.p.) injection of 100 μl of PBS (vehicle control), KP-10 (1 nmol), KP-10 (10 nmol), KP-54 (1 nmol) or a series of six i.p. injections (every 10 minutes over one hour) of KP-10 (1 nmol) to extend the duration of action of KP-10. 100 μl of blood was collected from a tail vein 10 min after the final injection and the mice were killed 2 hours after treatment by an injection of pentobarbital (100mg/kg i.p.). Blood was collected from the vena cava, mixed with 5 μl EDTA, centrifuged at 10,000 x g for 10 min at 4°C to obtain the plasma fraction, and stored at -20°C until assayed.
as §1
Plasma LH was assayed using a commercial ELISA kit (LH Ultrasensitive Rodent ELISA, Endocrine Technologies Cat Number ERK 7010+) with a sensitivity of 0.3 ng/ml and 7% intra-assay and 10% inter-assay coefficients of variation. […]

[4] = test system: plasma LH levels; experiment: Study 1: plasma LH after a single i.p. injection of kisspeptin; format: in vivo, mouse; conditions: male mice, single i.p. injection of 1 nmol, ELISA, mean ± s.e.m.
Description: Male mice received a single intraperitoneal (i.p.) injection of 100 μl of PBS (vehicle control; 137 mM NaCl, 2.7 mM KCl, 10 mM Na2HPO4, 1.8mM KH2PO4, pH 7.4), KP-10 (1 nmol), or KP-54 (1 nmol) in PBS and LH levels in the plasma measured at 10 min and 2 h after treatment to compare early and late responses points. We chose the 10 min point as some studies have shown that KP-10 injection results in maximal LH secretion after 10–15 min [16, 18]. 100 μl of blood was collected from a tail vein 10 min after injection, mixed with 5 μl EDTA and centrifuged at 10,000 x g for 10 min at 4°C. The plasma supernatant was stored at -20°C until assayed. Two hours after injection, mice were deeply anaesthetized with pentobarbital (100mg/kg i.p.), ~300 μl of blood was rapidly collected from the vena cava and processed as described above. Finally the mice were perfused intracardially with 20 ml of 4% paraformaldehyde in PBS. Brains were removed and incubated for 1 h in the same fixative as for perfusion and placed in PBS for sectioning and immunohistochemistry processing.
3–5 month old wild-type (129S6/SvEv) male mice were used in this study. The mice were housed in open cages on a 12 hour light cycle (lights on at 0700 h) at a controlled temperature (22°C), and were provided with food and water ad libitum. […]

[5] = men / humans; ref [5], [30] (KP-10), ref [5] (KP-54); cited from earlier work
Description: It should be noted, however that the RIA used to measure KP-54 may also detect shorter breakdown products of this protein that might be biologically inert. It is likely that the lack of GnRH neuronal activation and sustained LH release by KP-10 is mainly due to its instability. It is noteworthy that we failed ...

Q: Which results are given for `CC[C@H](C)[C@H](NC(=O)[C@H](CCC(N)=O)NC(=O)[C@H](CCCNC(=N)N)NC(=O)[C@H](CO)NC(=O)[C@H](Cc1c[nH]cn1)NC(=O)[C@@H]1CCCN1C(=O)[C@H](C)NC(=O)[C@H](CO)NC(=O)[C@H](CC(C)C)NC(=O)CNC(=O)[C@@H]1CCCN1C(=O)[C@H](CCC(N)=O)NC(=O)[C@H](CCC(N)=O)NC(=O)[C@H](CCCNC(=N)N)NC(=O)[C@H](CO)NC(=O)CNC(=O)[C@H](CO)NC(=O)[C@H](CO)NC(=O)[C@H](CCC(=O)O)NC(=O)[C@@H]1CCCN1C(=O)[C@@H]1CCCN1C(=O)[C@@H]1CCCN1C(=O)[C@H](CO)NC(=O)[C@H](CC(C)C)NC(=O)[C@H](CO)NC(=O)[C@@H](NC(=O)CN)[C@@H](C)O)C(=O)N1CCC[C@H]1C(=O)N[C@@H](C)C(=O)N1CCC[C@H]1C(=O)N[C@@H](CCC(N)=O)C(=O)NCC(=O)N[C@@H](C)C(=O)N[C@H](C(=O)N[C@@H](CC(C)C)C(=O)N[C@H](C(=O)N[C@@H](CCC(N)=O)C(=O)N[C@@H](CCCNC(=N)N)C(=O)N[C@@H](CCC(=O)O)C(=O)N[C@@H](CCCCN)C(=O)N[C@@H](CC(=O)O)C(=O)N[C@@H](CC(C)C)C(=O)N1CCC[C@H]1C(=O)N[C@@H](CC(N)=O)C(=O)N[C@@H](Cc1ccc(O)cc1)C(=O)N[C@@H](CC(N)=O)C(=O)N[C@@H](Cc1c[nH]c2ccccc12)C(=O)N[C@@H](CC(N)=O)C(=O)N[C@@H](CO)C(=O)N[C@@H](Cc1ccccc1)C(=O)NCC(=O)N[C@@H](CC(C)C)C(=O)N[C@@H](CCCNC(=N)N)C(=O)N[C@@H](Cc1ccccc1)C(N)=O)C(C)C)C(C)C` [KP-54]?
A: level at time molar at 0.5 h ([1]; 129S6/SvEv, mouse, plasma, ip, RIA, mean ± SEM, n = 4, read-out: plasma kisspeptin level at 30 min post-injection): 13.2 ± 4.36 nM; level at time molar at 1 h ([1]; 129S6/SvEv, mouse, plasma, ip, RIA, mean ± SEM, n = 4, read-out: plasma kisspeptin level at 60 min post-injection): 5.03 ± 0.787 nM; level at time molar at 2 h ([1]; 129S6/SvEv, mouse, plasma, ip, RIA, mean ± SEM, n = 4, read-out: plasma kisspeptin level at 120 min post-injection): 1.19 ± 0.33 nM; peak (maximum) plasma kisspeptin level ([1]; RIA (GQ2 antibody), mean ± SEM, n = 4 per time point): 12292 ± 2655 pmol/L; time of peak plasma kisspeptin level post-injection ([1]; RIA, n = 4 per time point): 5 min; plasma half-life ([1]; estimated from RIA plasma levels, RIA recognises all forms of Kp, may include breakdown products): around 32 min; fraction of the injected peptide entering the bloodstream after intraperitoneal injection ([1]; assuming a total blood volume of approximately 5 ml): ~6%; solubility in water [2]: 1000 µg/mL (≈ 171 µM); plasma LH level at 2 hrs [3]: 9.62 ± 1.67 ng/mL; plasma LH level 10 min post-injection ([4]; tail vein blood, n = 8, PBS 0.06 ± 0.04): 5.70 ± 0.69 ng/mL; plasma LH level 2 hours post-injection ([4]; vena cava blood, n = 8): 6.42 ± 1.74 ng/mL; half-life in the blood stream in humans [5]: 28 min
